This passage reports IC50 and EC50 results from patent US9624244B2, “Benzo [B] isoxazoloazepine bromodomain inhibitors and uses thereof” (Constellation Pharmaceuticals, Inc., priority 2012, dated 2017).

The target of one assay is T1, BRD4(BD1) (Homo sapiens, UniProt O60885).
T1 construct: His; made in house
Briefly: BRD4 AlphaLisa binding assay. The settings on record: BRD4(BD1) 30 nM, biotinylated H4-tetraacetyl peptide 200 nM, read-out: AS IC50. The protocol: IC50 Measurements for Inhibitors Using BRD4 AlphaLisa Binding Assay
Specifically, in a 384 well ProxiPlate BRD4(BD1) (30 nM final) was combined with peptide (200 nM final) in 40 mM HEPES (pH 7.0), 40 mM NaCl, 1 mM DTT, 0.01% (w/v) BSA, and 0.008% (w/v) Brij-35 either in the presence of DMSO (final 1.2% DMSO) or compound dilution series in DMSO. After 20 minute incubation at room temperature Alpha streptavidin donor beads and AlphaLisa anti-Flag acceptor beads were added to a final concentration of 10 ug/mL each. After three hours equilibration plates were read on an Envision instrument and IC50s calculated using a four parameter non-linear curve fit.

The subject of assay [1] is IL-6 secretion, THP-1 cells. Briefly: Cell-based IL-6 quantification assay (ELISA, Mesoscale) in LPS-stimulated THP-1 cells. The settings on record: Homo sapiens, LPS 4 μg/mL, 16 h, ELISA value/CellTiter-Glo ratio. The protocol:
Cell-Based IL-6 Quantification Assay (ELISA, Mesoscale Assay):
100,000 THP-1 cells were seeded in RPMI1640-10% FBS in 96-well plates. LPS (E. Coli Invitrogen) in RPMI-10% FBS at a final concentration of 4 μg/mL was added to the wells and the cells are then incubated in the presence of various concentrations of compounds for 16 h. Plates are spun ([…], 5 min), an aliquot of 25 uL supernatant is transferred in to an ELISA plate (Mesoscale technology, MSD) and the detection of IL-6 is performed using manufacturer's instructions. The amount of cells in each well is assessed using CellTiter-Glo® (Promega). The ratio of ELISA value/CellTiter-Glo value is used to calculate the percent of inhibition of IL-6 secretion.
In general terms: An ELISA detects its analyte on a solid surface through an enzyme-linked reagent.

The subject of assay [2] is MYC mRNA, MV4:11 (AML) or Raji (Burkitt's lymphoma) cells. Description: cMyc RNA quantification assay (QuantiGene). The format is cell-based. To be noted: MV4:11 or Raji cells, 4 h, MYC mRNA normalized to DMSO. The protocol: cMyc RNA Quantification Assay (QuantiGene® Assay):
MV4:11 (AML) or Raji (Burkitt's lymphoma) cells were seeded in a 96-well plate and incubated in the presence of various concentrations of compounds for 4 h. Relative mRNA levels were quantitated by using QuantiGene 2.0 assay (Affymetrix) according to the manufacturer's recommendation. Signals were detected by using an Envision plate reader (Perkin-Elmer). Biological duplicates were averaged and normalized to vehicle (DMSO) control to calculate percent MYC mRNA levels.

With `Cc1noc2c1-c1ccc(-c3cncnc3)cc1N(c1ccc(C#N)cc1)CC2` [Compound 109], the results for the IC50 (at BRD4(BD1); in assay [1]) were 350 nM and > 1000 nM, respectively. Further, in assay [2], a half-maximal effect (EC50) was put at 2040 nM.
On to `Cc1noc(C)c1-c1ccc2c(c1)N(c1ccc(C#N)cc1)CCc1onc(C)c1-2` [Compound 111], for which the IC50 (commonly the midpoint of a concentration-inhibition curve) at BRD4(BD1) was 300 nM; in assay [1] it was > 1000 nM. In addition, it took 3330 nM to reach a half-maximal effect in assay [2] (EC50).
`Cc1onc2c1-c1ccccc1N(c1ccc(Cl)cc1)CC2` [Compound 136, 6-(4-chlorophenyl)-1-methyl-5,6-dihydro-4H-benzo[b]isoxazolo[4,3-d]azepine]: the IC50 was found to be 4770 nM on BRD4(BD1) and 7700 nM in assay [1]. Besides, in assay [2], the EC50 (as a rule, the midpoint of the concentration-response curve) was > 4000 nM.
For `Cc1noc2c1-c1ccc(-c3ccc(N)nc3)cc1N(c1ccc(C#N)cc1)CC2C` (stereo not drawn) [Compound 123], the IC50 at BRD4(BD1) was found to be 40 nM; in assay [1], 80 nM. The compound further registered an EC50 in assay [2] of 200 nM.
In the case of `Cc1noc2c1-c1ccc(-c3cnn(C)c3)cc1N(c1ccc(C#N)cc1)CC2CCO` (stereo not drawn) [Compound 138, 4-(4-(2-hydroxyethyl)-1-methyl-8-(1-methyl-1H-pyrazol-4-yl)-4H-benzo[b]isoxazolo[4,5-d]azepin-6(5H)-yl)benzonitrile], the IC50 on BRD4(BD1) is 80 nM; in assay [1], 340 nM. In assay [2], the concentration for a half-maximal effect (EC50) was found to be 310 nM.
Regarding `Cc1noc2c1-c1ccc(-c3ccc(N)nc3)cc1N(c1ccc(C#N)cc1)CC2` [Compound 116], the IC50 at BRD4(BD1) was 60 nM; in assay [1], 380 nM. The EC50 in assay [2] is 550 nM.
With `Cc1noc2c1-c1ccc(-c3ccc(N)nc3)cc1N(c1ccc(C#N)cc1)CC2CC(=O)N(C)C` (stereo not drawn) [Compound 139, 2-(8-(6-aminopyridin-3-yl)-6-(4-cyanophenyl)-1-methyl-5,6-dihydro-4H-benzo[b]isoxazolo[4,5-d]azepin-4-yl)-N,N-dimethylacetamide], the IC50 is 1000 nM at BRD4(BD1) and > 1000 nM in assay [1]. The EC50 in assay [2] is > 4000 nM.
For `Cc1noc2c1-c1ccc(-c3ccc(=O)n(C)c3)cc1N(c1ccc(C#N)cc1)CC2` [Compound 117], in that order: 40 nM, 150 nM and 610 nM.
